Test [1] addresses GLS1 (purified recombinant human GAC) (Homo sapiens (Human), UniProt O94925). As to the kind of experiment: GLS1 Enzymatic Activity Assay (dual-coupled glutamate oxidase/HRP Amplex UltraRed). The format is biochemical.
The test system of another test is A549 cells. As to the kind of experiment: Proliferation Assay (A549 viability, Cell Titer Fluor, 72 hours). The class given is cell-based. The following applies: Homo sapiens, A549, 72 h. As to the method:
A549 cells were routinely maintained in RPMI 1640 media (Gibco catalog number 11875-093) supplemented with 10% dialyzed fetal bovine serum using a humidified incubator (37° C., 5% CO2 and ambient O2). In preparation for the viability assay, cells were inoculated into 384-well black CulturPlates (Perkin Elmer) at a density of 1000 cells/well in a volume of 40 uL. Following a 24-hour incubation at 37° C., 5% CO2 and ambient O2, cells were treated with compound ([…]) in a final DMSO concentration of 0.5% (v/v). The microplates were then incubated for 72 hours (37° C., 5% CO2 and ambient O2). Cell Titer Fluor (Promega) was subsequently added (10 uL of 6× reagent) and mixed for 15 minutes at room temperature. The plates were then incubated for 30 minutes (37° C., 5% CO2 and ambient O2) and fluorescence was subsequently read on the Perkin Elmer Envision plate reader. IC50 values were calculated using a four-parameter logistic curve fit.

GLS1 (purified recombinant human GAC), sequence (O94925 other isoform, or with tags, fused parts or gaps): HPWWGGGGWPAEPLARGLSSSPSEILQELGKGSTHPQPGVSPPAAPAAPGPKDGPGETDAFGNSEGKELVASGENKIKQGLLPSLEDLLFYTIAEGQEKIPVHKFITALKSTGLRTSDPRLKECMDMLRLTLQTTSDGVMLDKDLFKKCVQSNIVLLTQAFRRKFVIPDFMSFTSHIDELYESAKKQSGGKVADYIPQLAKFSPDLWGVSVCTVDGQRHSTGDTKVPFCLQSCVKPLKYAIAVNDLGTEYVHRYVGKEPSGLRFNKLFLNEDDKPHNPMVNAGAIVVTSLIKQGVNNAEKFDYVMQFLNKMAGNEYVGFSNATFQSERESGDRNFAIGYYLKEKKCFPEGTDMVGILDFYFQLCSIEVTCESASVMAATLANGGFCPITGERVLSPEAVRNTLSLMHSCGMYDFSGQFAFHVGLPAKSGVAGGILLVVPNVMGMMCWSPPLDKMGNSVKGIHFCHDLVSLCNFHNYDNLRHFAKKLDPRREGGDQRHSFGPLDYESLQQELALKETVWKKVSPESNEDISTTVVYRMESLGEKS

For orientation: IC50 means the concentration at which inhibition is half-maximal. Consider `CNC(=O)c1cn(CCCCc2ccc(NC(=O)Cc3cncc(OC4CC(F)(F)C4)c3)nn2)nn1` [Example 202, 1-(4-(6-(2-(5-(3,3-difluorocyclobutoxy)pyridin-3-yl)acetamido)pyridazin-3-yl)butyl)-N-methyl-1H-1,2,3-triazole-4-carboxamide], for which, in test [1], the half-inhibitory concentration (IC50) was less than 100 nM.

On to `CNC(=O)c1cn(CC(F)CCc2ccc(NC(=O)Cc3cc(OC(C)C(F)(F)F)ccn3)nn2)nn1` (stereo not shown) [Example 266, 1-(2-fluoro-4-(6-(2-(4-((1,1,1-trifluoropropan-2-yl)oxy)pyridin-2-yl)acetamido)pyridazin-3-yl)butyl)-N-methyl-1H-1,2,3-triazole-4-carboxamide], for which the IC50 in test [1] is less than 100 nM.

By EC50 is commonly meant the concentration at which the effect is half-maximal. A lower EC50 goes with higher potency in that assay. `O=C(NCc1cccc(OC(F)(F)F)c1)c1cn(CCCCn2cc(C(=O)NCc3ccc(C(F)(F)F)cn3)nn2)nn1` [Example 81, 1-{4-[4-({[3-(trifluoromethoxy)phenyl]methyl}carbamoyl)-1H-1,2,3-triazol-1-yl]butyl}-N-{[5-(trifluoromethyl)pyridin-2-yl]methyl}-1H-1,2,3-triazole-4-carboxamide] came in with an EC50 with A549 cells of less than 100 nM.

In the case of `CNC(=O)c1cn(CCCCc2ccc(NC(=O)Cc3cc(-c4cc(F)ccc4C)ccn3)nn2)nn1` [Example 609, 1-(4-(6-(2-(4-(5-fluoro-2-methylphenyl)pyridin-2-yl)acetamido)pyridazin-3-yl)butyl)-N-methyl-1H-1,2,3-triazole-4-carboxamide], the IC50 in test [1] is less than 100 nM.

`CNC(=O)c1cn(CCCCc2ccc(NC(=O)Cc3cc(-c4ccc(F)cc4C(F)(F)F)ccn3)nn2)nn1` [Example 606, 1-(4-(6-(2-(4-(4-fluoro-2-(trifluoromethyl)phenyl)pyridin-2-yl)acetamido)pyridazin-3-yl)butyl)-N-methyl-1H-1,2,3-triazole-4-carboxamide]: the IC50 in test [1] is less than 100 nM.

In the case of `CNC(=O)c1cn(CCCCc2ccc(NC(=O)Cc3cc(Br)ccn3)nn2)nn1` [Example 200, 1-(4-(6-(2-(4-bromopyridin-2-yl)acetamido)pyridazin-3-yl)butyl)-N-methyl-1H-1,2,3-triazole-4-carboxamide], in test [1], the half-inhibitory concentration (IC50) is less than 100 nM.

Compound `O=C(NCc1cc(OC(F)(F)F)ccc1F)c1cn(CCC(F)Cn2cc(C(=O)NCc3ccccn3)nn2)nn1` (stereo not shown) [Example 369, 1-{2-fluoro-4-[4-({[2-fluoro-5-(trifluoromethoxy)phenyl]methyl}carbamoyl)-1H-1,2,3-triazol-1-yl]butyl}-N-(pyridin-2-ylmethyl)-1H-1,2,3-triazole-4-carboxamide] showed an EC50 in the test with A549 cells of less than 100 nM.

`O=C(Cc1cncc(OC2CC(F)(F)C2)c1)Nc1ccc(CCCCn2cc(C(=O)NCc3ccccn3)nn2)nn1` [Example 231, 1-(4-(6-(2-(5-(3,3-difluorocyclobutoxy)pyridin-3-yl)acetamido)pyridazin-3-yl)butyl)-N-(pyridin-2-ylmethyl)-1H-1,2,3-triazole-4-carboxamide]: the IC50 in test [1] is less than 100 nM.

As for `CNC(=O)c1cn(CCCCc2ccc(NC(=O)Cc3cc(-c4cccc(Cl)c4OC(F)(F)F)ccn3)nn2)nn1` [Example 608, 1-(4-(6-(2-(4-(3-chloro-2-(trifluoromethoxy)phenyl)pyridin-2-yl)acetamido)pyridazin-3-yl)butyl)-N-methyl-1H-1,2,3-triazole-4-carboxamide], in test [1], the 50% inhibitory concentration (IC50) is less than 100 nM.

For the compound `CNC(=O)c1cn(CCCCc2ccc(NC(=O)Cc3cncc(Br)c3)nn2)nn1` [Example 546, 1-(4-{6-[2-(5-bromopyridin-3-yl)acetamido]pyridazin-3-yl}butyl)-N-methyl-1H-1,2,3-triazole-4-carboxamide], in test [1], the IC50 was less than 100 nM.

Consider `CNC(=O)c1cn(CCCCc2ccc(NC(=O)Cc3cc(C4CC4)ccn3)nn2)nn1` [Example 190, 1-(4-{6-[2-(4-cyclopropylpyridin-2-yl)acetamido]pyridazin-3-yl}butyl)-N-methyl-1H-1,2,3-triazole-4-carboxamide], for which, in test [1], the IC50 is less than 100 nM.

Consider `CNC(=O)c1cn(CCCCc2ccc(NC(=O)Cc3ccc(Cl)nc3)nn2)nn1` [Example 544, 1-(4-{6-[2-(6-chloropyridin-3-yl)acetamido]pyridazin-3-yl}butyl)-N-methyl-1H-1,2,3-triazole-4-carboxamide], for which the IC50 in test [1] is less than 100 nM.

Consider `CNC(=O)c1cn(CCCCc2ccc(NC(=O)Cc3cc(Cl)ccn3)nn2)nn1` [Example 191, 1-(4-{6-[2-(4-chloropyridin-2-yl)acetamido]pyridazin-3-yl}butyl)-N-methyl-1H-1,2,3-triazole-4-carboxamide], for which the IC50 in test [1] is less than 100 nM.

`O=C(Cc1cncc(OC2CC(F)(F)C2)c1)Nc1ccc(CCCCn2cc(C(=O)NCc3cc(C(F)(F)F)ccn3)nn2)nn1` [Example 230, 1-(4-(6-(2-(5-(3,3-difluorocyclobutoxy)pyridin-3-yl)acetamido)pyridazin-3-yl)butyl)-N-((4-(trifluoromethyl)pyridin-2-yl)methyl)-1H-1,2,3-triazole-4-carboxamide]: the 50% inhibitory concentration (IC50) in test [1] is less than 100 nM.

For the compound `O=C(Cc1ccccn1)Nc1ccc(CCCCn2cc(C(=O)NCc3cc(C(F)(F)F)ccn3)nn2)nn1` [Example 203, 1-(4-(6-(2-(pyridin-2-yl)acetamido)pyridazin-3-yl)butyl)-N-((4-(trifluoromethyl)pyridin-2-yl)methyl)-1H-1,2,3-triazole-4-carboxamide], the IC50 in test [1] was less than 100 nM.

Take `CNC(=O)c1cn(CCCCc2ccc(NC(=O)Cc3cc(-c4cccc(OC(F)(F)F)c4F)ccn3)nn2)nn1` [Example 607, 1-(4-(6-(2-(4-(2-fluoro-3-(trifluoromethoxy)phenyl)pyridin-2-yl)acetamido)pyridazin-3-yl)butyl)-N-methyl-1H-1,2,3-triazole-4-carboxamide]: the IC50 in test [1] is less than 100 nM.
